Read-outs that look alike come from different tables or passages of the source. Non-standard residues stand in square brackets, D forms with d. Residues, ends and D or L forms follow the SMILES beside them. *: point of attachment. Acetyl(1,8-naphthalimido) = O=C1c2cccc3cccc(c23)C(=O)N1CC(=O)*; Caffeoyl = O=C(/C=C/c1ccc(O)c(O)c1)*; Nle = CCCC[C@H](N)C(=O)O; βAla = NCCC(=O)O
What was measured:
MDA-MB-231 cells = assay type: cell-based, human; settings: 72 h
Method: (§1) The compounds were studied for antiproliferative activity by standard MTT dye reduction assay. Cell cultures from different cell line types (MCF-10A, MCF-7 and MDA-MB-231) were incubated with the test substances at a concentration of 15 to 2000 μM for 72 h. The antiproliferative activity expressed in % relative to the negative control was determined. The obtained results are shown on Figure 2. MCF-10A is a reliable model for normal human mammary epithelial cells, which serves as a control in experiments to determine antitumor activity. The IC50 values, found in MCF-10A, are used to calculate a selective index (SI), which assesses the potential of a substance to be used as an antitumor agent. We used the following formula to calculate the selective index SI = IC50 of MCF-10A / IC50 of tumor cells. The highest selective index with respect to MCF-7 is shown by the substances: Si3 (SI = 8.35), Si11 (SI = 2.62) and Si1 (SI = 1.24).
(§2) The antiproliferative activity testing was performed on cell cultures from several human cell lines using the standard MTT-dye reduction assay, described by Mosmann. The assay is based on the metabolism of the tetrazolium salt MTT to insoluble formazan by mitochondrial reductases. The formazan concentration can be determined spectrophotometrically. The measured absorption is an indicator of cell viability and metabolic activity. Cell lines: mammary gland type A adenocarcinoma ER+, PR+, HER2- (MCF-7), triple-negative breast cancer ER-, PR-, HER2- (MDA-MB-231) and breast, non-tumorigenic epithelial cell line (MCF-10A) were used in experiments. The cell lines were routinely grown as monolayers in 75 cm^2 tissue culture flasks under standard conditions (described above). Cells were plated at a density of 1 × 10^3 cells in 100 µL in each well of 96-well flat-bottomed microplates and allowed to adhere for 24 h before treatment with test compounds. A concentration range from 15 to 2000 μM was applied for 72 h. The formazan absorption was registered using a microplate reader at λ = 540 nm. Antiproliferative activities were expressed as IC50 values (concentrations required for 50% inhibition of cell growth), calculated using non-linear regression analysis (GraphPad Software, San Diego, CA, USA).

[1] = In vitro cytotoxicity testing (3T3 NRU test); assay type: cell-based; settings: mouse
Method: The newly synthesized compounds were studied for cytotoxicity by standard method (3T3 NRU-test). The cells were incubated with the test substances at a concentration of 30 to 4000 μM for 24 h. The cytotoxicity expressed, in % relative to the negative control was determined.
The cytotoxicity testing was performed as described by Borenfreund et al. and the latest modification of the validated BALB/3T3 clone A31 Neutral Red Uptake Assay (3T3 NRU test) for cytotoxicity testing. BALB/3T3, clone A31 mouse embryo cells were grown as monolayer in 75 cm^2 tissue culture flasks in DMEM high-glucose (4.5 g/L), supplemented with 10% FBS and antibiotics (Sigma-Aldrich, Schnelldorf, Germany). Cultures were maintained at 37.5 °C in a humidified atmosphere under 5% CO2. Cells were plated at a density of 1 × 10^4 cells in 100 μL culture medium in each well of 96-well flat-bottomed microplates (Biologix, Lenexa, KS, USA) and allowed to adhere for 24 h. The test compounds, dissolved in DMSO and diluted in culture medium to concentration range 30 to 4000 μM were then added and the cell cultures were incubated for additional 24 h. […] After treatment with Neutral Red medium, washing and treatment with the Ethanol/Acetic acid solution (NR Desorb), the absorption was measured on a TECAN microplate reader (TECAN, Grödig, Austria) at wavelength 540 nm.

MCF-7 cells = assay type: cell-based, human; settings: for selectivity with respect to the studied tumor cell lines (in words): MCF-7 and MDA-MB-231 versus MCF-10A
Method: as §1, §2

MCF-10A cells = assay type: cell-based, human; settings: 72 h
Method: as §1, §2

Escherichia coli K12 407 = assay type: cell-based; settings: for antibacterial effect, zones free of microbial growth (in words): agar diffusion, E. coli K12 407
Method: Antibacterial properties of the obtained new peptides and their conjugates were tested against E. coli K12 407 strain. Antibacterial activity of tested compounds was proven through appear of free zone around the loaded disk-paper by means of agar-diffusion method (Figure 3).
All newly synthesized derivatives of (KLAKLAK)2-NH2 at two concentrations 10 μM and 20 μM, were tested against facultative anaerobic gram-negative Esherichia coli NBIMCC K12 407. The strains were obtained from the culture collection of Bulgarian National Bank for Industrial Microorganisms and Cell Cultures (Sofia, Bulgaria) and were cultured in Luria-Bertani (LB) medium (Mumbai, India). The microbiological tests were performed using the agar diffusion method. The overnight pure cultures from tested strains were prepared in liquid LB-medium. A single colony was used for inoculating the liquid LB medium in order to maintain initial bacterial concentration of 1 × 10^7 cfu/mL. 100 µL of bacterial suspensions were seeded on agar plates with solid LB-medium. After 30 min, sterile paper disks 6 mm in diameter were soaked with tested samples in amount of 6 µL and placed on the agar petri dishes surface. The plates were incubated for 24 h at 37 °C. The appeared inhibition zones and their size were measured. The sterile paper disks soaked with water was used as blank. Mean values were calculated by performing the experiments in triplicates.

[2] = MDA-MB-231, MTT, 15 to 2000 μM, read-out: IC50 of Mean ± SD, Antiproliferative Activity, MDA-MB-231

Compound | IC50 (MCF-7 cells; 72 h) [µM] | IC50 (MDA-MB-231 cells) [µM] | melting point [°C] | IC50 (MDA-MB-231 cells; [2]) [µM] | IC50 at 24 h ([1]; BALB/3T3 cells, NRU, 24 h, 30 to 4000 μM, read-out: IC50 of Mean ± SD, Cytotoxicity, BALB/3T3) [µM] | IC50 (MCF-7 cells; MCF-7, MTT, 72 h, 15 to 2000 μM, read-out: IC50 of Mean ± SD, Antiproliferative Activity, MCF-7) [µM] | selective index (SI) with respect to MCF-7 (MCF-7 cells; SI = IC50 of MCF-10A / IC50 of MCF-7) | IC50 (MCF-10A cells; MCF-10A, MTT, 15 to 2000 μM, read-out: IC50 of Mean ± SD, Antiproliferative Activity, MCF-10A) [µM] | Average inhibition zones size (Escherichia coli K12 407; 20 μM, E. coli K12 407, 24 h at 37 °C, three replicates ± SD) [mm] | antibacterial effect, zones free of microbial growth (in words) (Escherichia coli K12 407) | IC50 at 24 h [1] [µM] | selectivity with respect to the studied tumor cell lines (in words) (MCF-7 cells) | IC50 (MCF-10A cells) [µM] | selective index (SI) with respect to MCF-7 (MCF-7 cells; 72 h) | activity against Escherichia coli K12 407 (in words) (Escherichia coli K12 407; 20 μM)
N.N.[Cl][Pt][Cl] [Cisplatin, reference compound] | – | – | – | 1.83 ± 0.13 | – | – | – | – | – | – | – | – | – | – | –
CC(C)C[C@H](NC(=O)[C@H](CCCCN)NC(=O)[C@H](C)NC(=O)[C@H](CC(C)C)NC(=O)[C@H](CCCCN)NC(=O)[C@H](CCCCN)NC(=O)[C@H](C)NC(=O)[C@H](CC(C)C)NC(=O)[C@H](CCCCN)NC(=O)[C@H](C)NC(=O)[C@H](CC(C)C)NC(=O)[C@@H](N)CCCCN)C(=O)N[C@@H](C)C(=O)N[C@@H](CCCCN)C(N)=O [Si1, (KLAKLAK)2-NH2] | – | – | – | 746 ± 7.6 | 365 ± 4.08 | 124 ± 8.12 | 1.24 | 154 ± 6.53 | 5 ± 0.15 | clear zones free of microbial growth | – | – | – | – | –
CC(C)C[C@H](NC(=O)[C@H](CCCCN)NC(=O)CCNC(=O)[C@H](CC(C)C)NC(=O)[C@@H](N)CCCCN)C(=O)NCCC(=O)N[C@@H](CCCCN)C(N)=O [Si3, KLβAKLβAK-NH2] (H-KL[βAla]KL[βAla]K-NH2; N-terminus assumed) | 176 ± 4.66 | > 2000 | – | – | – | – | – | – | – | – | 2870 ± 130 | significant selective index | 1470 ± 104 | 8.33 | –
CC(C)C[C@H](NC(=O)[C@H](CCCCN)NC(=O)/C=C/c1ccc(O)c(O)c1)C(=O)N[C@@H](C)C(=O)N[C@@H](CCCCN)C(=O)N[C@@H](CC(C)C)C(=O)N[C@@H](C)C(=O)N[C@@H](CCCCN)C(N)=O [Si8, Caf-KLAKLAK-NH2] (Caffeoyl-KLAKLAK-NH2) | 129 ± 8.03 | 514 ± 26.8 | 154 | – | – | – | – | – | – | clear zones free of microbial growth | 710 ± 11.9 | do not show selectivity | 136 ± 7.09 | – | –
CCCC[C@H](NC(=O)[C@H](CCCCN)NC(=O)[C@H](C)NC(=O)[C@H](CCCC)NC(=O)[C@@H](N)CCCCN)C(=O)N[C@@H](C)C(=O)N[C@@H](CCCCN)C(N)=O [Si13, KnLAKnLAK-NH2] (H-K[Nle]AK[Nle]AK-NH2; N-terminus assumed) | 1700 ± 112 | > 2000 | – | – | – | – | – | – | – | – | > 4000 | – | > 2000 | – | –
CCCC[C@H](NC(=O)[C@H](CCCCN)NC(=O)CN1C(=O)c2cccc3cccc(c23)C1=O)C(=O)N[C@@H](C)C(=O)N[C@@H](CCCCN)C(=O)N[C@@H](CCCC)C(=O)N[C@@H](C)C(=O)N[C@@H](CCCCN)C(N)=O [Si14, 1,8-naphthalimideG-KnLAKnLAK-NH2] ({Acetyl(1,8-naphthalimido)}-K[Nle]AK[Nle]AK-NH2) | 593 ± 60.3 | 1050 ± 49.8 | – | – | – | – | – | – | – | clear zones free of microbial growth | 2890 ± 61.4 | No selectivity | 631 ± 51.2 | – | moderate activity
CCCC[C@H](NC(=O)[C@H](CCCCN)NC(=O)/C=C/c1ccc(O)c(O)c1)C(=O)N[C@@H](C)C(=O)N[C@@H](CCCCN)C(=O)N[C@@H](CCCC)C(=O)N[C@@H](C)C(=O)N[C@@H](CCCCN)C(N)=O [Si15, Caf-KnLAKnLAK-NH2] (Caffeoyl-K[Nle]AK[Nle]AK-NH2) | 140 ± 7.12 | 346 ± 7.91 | – | – | – | – | – | – | – | – | 1514 ± 12.2 | No selectivity | 147 ± 7.96 | – | –

Now from value to molecule, other results behind:

IC50 (MCF-7 cells; 72 h) [µM] | IC50 (MDA-MB-231 cells) [µM] | melting point [°C] | Compound | IC50 (MDA-MB-231 cells; [2]) [µM] | IC50 at 24 h ([1]; BALB/3T3 cells, NRU, 24 h, 30 to 4000 μM, read-out: IC50 of Mean ± SD, Cytotoxicity, BALB/3T3) [µM] | IC50 (MCF-7 cells; MCF-7, MTT, 72 h, 15 to 2000 μM, read-out: IC50 of Mean ± SD, Antiproliferative Activity, MCF-7) [µM] | selective index (SI) with respect to MCF-7 (MCF-7 cells; SI = IC50 of MCF-10A / IC50 of MCF-7) | IC50 (MCF-10A cells; MCF-10A, MTT, 15 to 2000 μM, read-out: IC50 of Mean ± SD, Antiproliferative Activity, MCF-10A) [µM] | Average inhibition zones size (Escherichia coli K12 407; 20 μM, E. coli K12 407, 24 h at 37 °C, three replicates ± SD) [mm] | antibacterial effect, zones free of microbial growth (in words) (Escherichia coli K12 407) | IC50 at 24 h [1] [µM] | selectivity with respect to the studied tumor cell lines (in words) (MCF-7 cells) | IC50 (MCF-10A cells) [µM] | selective index (SI) with respect to MCF-7 (MCF-7 cells; 72 h) | activity against Escherichia coli K12 407 (in words) (Escherichia coli K12 407; 20 μM)
663 ± 20 | 840 ± 21.2 | – | CC(C)C[C@H](NC(=O)[C@H](CCCCN)NC(=O)CCNC(=O)[C@H](CC(C)C)NC(=O)[C@H](CCCCN)NC(=O)CN1C(=O)c2cccc3cccc(c23)C1=O)C(=O)NCCC(=O)N[C@@H](CCCCN)C(N)=O [Si2, 1,8-naphthalimideG-KLβAKLβAK-NH2] ({Acetyl(1,8-naphthalimido)}-KL[βAla]KL[βAla]K-NH2) | – | – | – | – | – | – | – | 1430 ± 48.4 | no significant SI is observed | 666 ± 20.9 | – | –
> 2000 | > 2000 | – | CC(C)C[C@H](NC(=O)[C@H](CCCCN)NC(=O)[C@H](C)NC(=O)[C@H](CC(C)C)NC(=O)[C@@H](N)CCCCN)C(=O)N[C@@H](C)C(=O)N[C@@H](CCCCN)C(N)=O [Si6, KLAKLAK-NH2] (H-KLAKLAK-NH2; N-terminus assumed) | – | – | – | – | – | – | clear zones free of microbial growth | > 4000 | do not show selectivity | > 2000 | – | moderate activity
1200 ± 132 | > 2000 | – | CC(C)C[C@H](NC(=O)[C@H](CCCCN)NC(=O)CN1C(=O)c2cccc3cccc(c23)C1=O)C(=O)N[C@@H](C)C(=O)N[C@@H](CCCCN)C(=O)N[C@@H](CC(C)C)C(=O)N[C@@H](C)C(=O)N[C@@H](CCCCN)C(N)=O [Si7, 1,8-naphthalimideG-KLAKLAK-NH2] ({Acetyl(1,8-naphthalimido)}-KLAKLAK-NH2) | – | – | – | – | – | – | – | 3420 ± 51.3 | do not show selectivity | 1140 ± 64.5 | – | –
229 ± 7.18 | 1090 ± 70.7 | – | CC(C)C[C@H](NC(=O)[C@H](CCCCN)NC(=O)/C=C/c1ccc(O)c(O)c1)C(=O)NCCC(=O)N[C@@H](CCCCN)C(=O)N[C@@H](CC(C)C)C(=O)NCCC(=O)N[C@@H](CCCCN)C(N)=O [Si11, Caf-KLβAKLβAK-NH2] (Caffeoyl-KL[βAla]KL[βAla]K-NH2) | – | – | – | – | – | – | – | 742 ± 18.5 | significant selective index | 597 ± 53 | 2.62 | –
